Key:
[1] = Cytotoxicity against […] cells after 48 hrs by SRB assay; type: cell-based, Cricetulus griseus; conditions: chinese hamster, CHO-K1 cells
[2] = test system: NCI-H460; test: Cytotoxicity against human H460 cells after 48 hrs by SRB assay; type: functional; conditions: NCI-H460, 48 h
[3] = test system: HT-29; test: Cytotoxicity against human HT-29 cells after 48 hrs by SRB assay; type: functional; conditions: HT-29, 48 h
[4] = test system: MCF7; test: Cytotoxicity against human MCF7 cells after 48 hrs by SRB assay; type: functional; conditions: MCF7, 48 h
[5] = test system: SF-268; test: Cytotoxicity against human SF268 cells after 48 hrs by SRB assay; type: functional; conditions: SF-268, 48 h

Row | SMILES | GI50 at 48 h [1] [µM] | GI50 [2] [µM] | GI50 [3] [µM] | GI50 [4] [µM] | GI50 [5] [µM]
1 | CC(=O)O[C@H]1C(=O)[C@@]2(C)[C@H]([C@H](OC(=O)c3ccccc3)[C@]3(O)C[C@H](OC(=O)[C@H](O)[C@@H](NC(=O)c4ccccc4)c4ccccc4)C(C)=C1C3(C)C)[C@]1(OC(C)=O)CO[C@@H]1C[C@@H]2O [PACLITAXEL] | 5.9 | 0.024 | 0.012 | 0.012 | 0.012
2 | C=C1CCCC(C)(C)C1CCC1(C)C=Cc2cc(O)cc(OC)c2O1 (stereo not given) [METACHROMIN U] | 27 | 37 | 30 | 29 | 32
3 | CN[C@@H]1C[C@H]2O[C@@](C)([C@@H]1OC)n1c3ccccc3c3c4c(c5c6ccccc6n2c5c31)C(=O)NC4 [STAUROSPORINE] | 0.13 | 3.6 | 3.6 | 11 | 0.044
4 | C=C1CCCC(C)(C)C1CC/C(C)=C/Cc1cc(O)ccc1O (stereo not given) [METACHROMIN V] | 2.1 | 5.1 | 10 | 3.2 | 5.1
5 | C=C1CCCC(C)(C)C1CCc1ccc2c(c1)C(=O)C=C(OC)C2=O (stereo not given) [METACHROMIN W] | 89 | 50 | 130 | 107 | 104

— ChEMBL document CHEMBL1782002, “Metachromins U-W: cytotoxic merosesquiterpenoids from an Australian specimen of the sponge Thorecta reticulata” (J Nat Prod, 2011)
